Values of other authors in patent US9597338B2, “Shell-and-core dosage form approaching zero-order drug release” (Depomed, Inc., priority 2000, dated 2017).

Conditions: oral; doses administered with or following a meal

- Area under the plasma concentration-time curve with or following a meal: two to three times greater
- Peak plasma concentration with or following a meal: two to three times greater
SMILES: Cc1c(O)cccc1C(=O)N[C@@H](CSc1ccccc1)[C@H](O)CN1C[C@H]2CCCC[C@H]2C[C@H]1C(=O)NC(C)(C)C [nelfinavir]
